# Data as given in US20060276464A1, “Diarylsulfone sulfonamides and use thereof” (Wyeth, priority 2005, published 2006).
# pEC50, pIC50: −log10 of the molar value. Values joined by “and” are separate entries in the source; they are usually repeats but may differ in a detail not shown here. Equal values may be shown once. Read-outs that look alike come from different tables or passages of the source.
# Experiments:
# SFRP-1 [1] = target: T1, SFRP-1 (Homo sapiens, UniProt Q8N474); assay: Fluorescence polarization binding assay (competitive displacement of a probe compound from SFRP-1); details: fluorescence anisotropy, 45 nM SFRP-1, 20 nM probe;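 further: test compound competes with a fluorescent probe held by SFRP-1, seen as a drop in probe anisotropy after incubation in darkness, with anisotropy as function of rising compound dose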
# T1 sequence (Q8N474 32-314): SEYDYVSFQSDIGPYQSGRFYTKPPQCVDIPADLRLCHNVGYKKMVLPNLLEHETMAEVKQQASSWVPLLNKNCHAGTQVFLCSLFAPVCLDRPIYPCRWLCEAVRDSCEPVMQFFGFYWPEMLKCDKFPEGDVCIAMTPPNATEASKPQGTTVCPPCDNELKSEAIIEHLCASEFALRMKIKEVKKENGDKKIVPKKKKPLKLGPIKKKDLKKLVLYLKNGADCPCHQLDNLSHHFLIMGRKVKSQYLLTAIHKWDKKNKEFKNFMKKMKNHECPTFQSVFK
# SFRP-1 [2] = target: T1, SFRP-1; assay: Cell-based assay for in vitro measurement of SFRP-1/SARP2 antagonist activity (U2OS cells co-transfected with 16x TCF-tk-Luciferase reporter, Wnt and hSFRP-1); details: for fold induction at 15 µM / fold induction at 10 µM: U2OS; for fold induction at 10 µM: read-out: Fold Induction with SFRP-1, U2OS cells, single dose 10 μM, luciferase reporter, fold induction over SFRP-1 control;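 on all read-outs here: U2OS cells co-transfected with a TCF-tk luciferase reporter, a Wnt vector, hSFRP-1 or empty vector and CMV-βgal, luciferase luminescence read in cell lysates alongside βgal activity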
# [3] = read-out: Fold Induction with SFRP-1, Conc 15 μM, single dose, luciferase reporter, fold induction over SFRP-1 control, cells with SFRP-1
# [4] = read-out: Fold Induction without SFRP-1, Conc 15 μM, single dose, luciferase reporter, cells without SFRP-1 (specificity control)
# [5] = read-out: Fold Induction with SFRP-1, Conc 15 μM, with SFRP-1, fold induction over SFRP-1 control, single dose
# [6] = read-out: Fold Induction without SFRP-1, Conc 15 μM, without SFRP-1, single dose
SMILES,pIC50 (SFRP-1 [1]),fold induction at 15 µM (SFRP-1 [2]; [3]),fold induction at 15 µM (SFRP-1 [2]; [4]),fold induction at 15 µM (SFRP-1 [2]; [5]),fold induction at 15 µM (SFRP-1 [2]; [6]),pEC50 (SFRP-1 [2]),fold induction at 10 µM (SFRP-1 [2])
"Cc1ccc(S(=O)(=O)c2ccccc2)cc1S(=O)(=O)NC1CCN(C(=O)c2ccc(N(C)C)cc2)CC1 [Example 499, N-{1-[4-(dimethylamino)benzoyl]piperidin-4-yl}-2-methyl-5-(phenylsulfonyl)benzenesulfonamide]",6.05,2.4,1,–,–,–,–
"CC(C)c1ccc(S(=O)(=O)c2ccc(C(C)(C)C)cc2)cc1S(=O)(=O)NCCCn1ccnc1 [Example 436, 5-[(4-tert-butylphenyl)sulfonyl]-N-[3-(1H-imidazol-1-yl)propyl]-2-isopropylbenzenesulfonamide]",6.00,–,–,2.2,1,–,–
"CN(CCCNS(=O)(=O)c1cc(S(=O)(=O)c2ccccc2)ccc1C(F)(F)F)C(=O)N1CCNCC1 [Example 975, N-methyl-N-[3-({[5-(phenylsulfonyl)-2-(trifluoromethyl)phenyl]sulfonyl}amino)propyl]piperazine-1-carboxamide]",5.82,–,–,–,–,5.24,–
"O=C(O)c1cccc(N2CCC(CNS(=O)(=O)c3cc(S(=O)(=O)c4ccccc4)ccc3C(F)(F)F)CC2)c1 [Example 956, 3-{4-[({[5-(phenylsulfonyl)-2-(trifluoromethyl)phenyl]sulfonyl}amino)methyl]piperidin-1-yl}benzoic acid]",6.96,–,–,–,–,6.51,4.3
"Cc1cc(C)c(S(=O)(=O)c2ccccc2)cc1S(=O)(=O)NCCC1CCOCC1 [Example 328, 2,4-dimethyl-5-(phenylsulfonyl)-N-(2-tetrahydro-2H-pyran-4-ylethyl)benzenesulfonamide]",5.52,–,–,2.6,1.1,–,–
"O=S(=O)(N[C@H](CO)Cc1ccccc1)c1cc(S(=O)(=O)c2ccccc2)ccc1C(F)(F)F [Example 720, N-[(1S)-1-benzyl-2-hydroxyethyl]-5-(phenylsulfonyl)-2-(trifluoromethyl)benzenesulfonamide]",5.22,–,–,–,–,–,2
"Cc1ccc(S(=O)(=O)c2ccccc2)cc1S(=O)(=O)NC1CCSCC1 [Example 798, 2-methyl-5-(phenylsulfonyl)-N-(tetrahydro-2H-thiopyran-4-yl)benzenesulfonamide]",5.40,–,–,–,–,–,1.8
"CC(C)c1ccc(S(=O)(=O)c2ccc(NCCC#N)cc2)cc1S(=O)(=O)NCCn1ccnc1 [Example 450, 5-({4-[(2-cyanoethyl)amino]phenyl}sulfonyl)-N-[2-(1H-imidazol-1-yl)ethyl]-2-isopropylbenzenesulfonamide]",6.40 and 6.70 and 6.52,–,–,4,1,–,–
"CC(C)(C)OC(=O)NCCCNS(=O)(=O)c1cc(S(=O)(=O)c2ccccc2)ccc1C(F)(F)F [Example 988, tert-butyl [3-({[5-(phenylsulfonyl)-2-(trifluoromethyl)phenyl]sulfonyl}amino)propyl]carbamate]",5.96,–,–,–,–,5.72,–
"CCCc1ccc(S(=O)(=O)c2ccc(F)cc2)cc1S(=O)(=O)NCCCn1ccnc1 [Example 565, 5-[(4-Fluorophenyl)sulfonyl]-N-[3-(1H-imidazol-1-yl)propyl]-2-propylbenzenesulfonamide]",6.30,4,1.2,–,–,–,–
"C[S+]([O-])c1ccc(C(=O)N2CCC(NS(=O)(=O)c3cc(S(=O)(=O)c4ccccc4)ccc3C(F)(F)F)CC2)cc1 (stereo not shown) [Example 1052, N-{1-[4-(Methylsulfinyl)benzoyl]piperidin-4-yl}-5-(phenylsulfonyl)-2-(trifluoromethyl)benzenesulfonamide]",7.05,–,–,–,–,6.81,–
"CC(C)c1ccc(S(=O)(=O)c2ccc(NCCC#N)cc2)cc1S(=O)(=O)NC1CCOCC1 [Example 535, 5-({4-[(2-cyanoethyl)amino]phenyl}sulfonyl)-2-isopropyl-N-(tetrahydro-2H-pyran-4-yl)benzenesulfonamide]",6.40,3.8,1.2,–,–,–,–
"O=S(=O)(N[C@@H]1CCNC1)c1cc(S(=O)(=O)c2ccccc2)ccc1C(F)(F)F [Example 797, 5-(phenylsulfonyl)-N-[(3R)-pyrrolidin-3-yl]-2-(trifluoromethyl)benzenesulfonamide]",6.10,–,–,–,–,–,3.5
"N#CCN1CCC(NS(=O)(=O)c2cc(S(=O)(=O)c3ccccc3)ccc2C(F)(F)F)CC1 [Example 750, N-[1-(cyanomethyl)piperidin-4-yl]-5-(phenylsulfonyl)-2-(trifluoromethyl)benzenesulfonamide]",6.70,–,–,–,–,6.03,4.2
"Cc1ccc(S(=O)(=O)c2cc(Cl)cc(Cl)c2)cc1S(=O)(=O)NCCCn1ccnc1 [Example 344, 5-[(3,5-dichlorophenyl)sulfonyl]-N-[3-(1H-imidazol-1-yl)propyl]-2-methylbenzenesulfonamide]",5.85,–,–,2.2,1,–,–
"Nc1ccc(CCNS(=O)(=O)c2cc(S(=O)(=O)c3ccccc3)ccc2C(F)(F)F)cc1 [Example 928, N-[2-(4-aminophenyl)ethyl]-5-(phenylsulfonyl)-2-(trifluoromethyl)benzenesulfonamide]",6.74,–,–,–,–,6.42,3.9
"O=S(=O)(NCC1CCOCC1)c1cc(S(=O)(=O)c2ccccc2)ccc1C(F)(F)F [Example 765, 5-(phenylsulfonyl)-N-(tetrahydro-2H-pyran-4-ylmethyl)-2-(trifluoromethyl)benzenesulfonamide]",6.72,–,–,–,–,6.12,3.7
"O=C(c1ccnc(N2CCCC2)c1)N1CCC(NS(=O)(=O)c2cc(S(=O)(=O)c3ccccc3)ccc2C(F)(F)F)CC1 [Example 1029, 5-(phenylsulfonyl)-N-[1-(2-pyrrolidin-1-ylisonicotinoyl)piperidin-4-yl]-2-(trifluoromethyl)benzenesulfonamide]",6.85,–,–,–,–,6.31,–
"CCNc1ccc(S(=O)(=O)c2ccc(C)c(S(=O)(=O)NCCCn3ccnc3)c2)cc1 [Example 311, 5-{[4-(ethylamino)phenyl]sulfonyl}-N-[3-(1H-imidazol-1-yl)propyl]-2-methylbenzenesulfonamide]",6.40,–,–,2.4,1,–,–
"O=C(O)CN1CCCC1CCNS(=O)(=O)c1cc(S(=O)(=O)c2ccccc2)ccc1C(F)(F)F (stereo not shown) [Example 918, {2-[2-({[5-(phenylsulfonyl)-2-(trifluoromethyl)phenyl]sulfonyl}amino)ethyl]pyrrolidin-1-yl}acetic acid]",5.40,–,–,–,–,5.53,1.6
"CN(CCNS(=O)(=O)c1cc(S(=O)(=O)c2ccccc2)ccc1C(F)(F)F)C(=O)C(C)(C)C [Example 852, N,2,2-trimethyl-N-[2-({[5-(phenylsulfonyl)-2-(trifluoromethyl)phenyl]sulfonyl}amino)ethyl]propanamide]",6.52,–,–,–,–,5.78,3.3
"CNc1ccc(S(=O)(=O)c2ccc(C(C)C)c(S(=O)(=O)NCC3CCOCC3)c2)cc1 [Example 543, 2-isopropyl-5-{[4-(methylamino)phenyl]sulfonyl}-N-(tetrahydro-2H-pyran-4-ylmethyl)benzenesulfonamide]",6.10 and 5.80,2.7,1.1,–,–,–,–
"Cc1ccc(S(=O)(=O)c2ccccc2)cc1S(=O)(=O)NC1CCN(C(=O)c2ccc(C#N)cc2)CC1 [Example 476, N-[1-(4-cyanobenzoyl)piperidin-4-yl]-2-methyl-5-(phenylsulfonyl)benzenesulfonamide]",5.85,–,–,2,1,–,–
"CC(C)c1ccc(S(=O)(=O)c2ccccc2)cc1S(=O)(=O)NC1CCN(C(=O)OC(C)(C)C)CC1 [Example 912, tert-butyl 4-({[2-isopropyl-5-(phenylsulfonyl)phenyl]sulfonyl}amino)piperidine-1-carboxylate]",5.68,–,–,–,–,6.00,2.4
"CCNC(=O)N1CCC(NS(=O)(=O)c2cc(S(=O)(=O)c3ccccc3)ccc2C)CC1 [Example 501, N-ethyl-4-({[2-methyl-5-(phenylsulfonyl)phenyl]sulfonyl}amino)piperidine-1-carboxamide]",5.40,2.5,0.9,–,–,–,–
"CCc1ccc(S(=O)(=O)c2ccc(F)cc2)cc1S(=O)(=O)NCCn1ccnc1 [Example 297, 2-ethyl-5-[(4-fluorophenyl)sulfonyl]-N-[2-(1H-imidazol-1-yl)ethyl]benzenesulfonamide]",6.40,–,–,4.3,1.4,–,–
"O=S(=O)(NC1CCN(c2ccc(C(F)(F)F)cc2)CC1)c1cc(S(=O)(=O)c2ccccc2)ccc1C(F)(F)F [Example 763, 5-(phenylsulfonyl)-2-(trifluoromethyl)-N-{1-[4-(trifluoromethyl)phenyl]piperidin-4-yl}benzenesulfonamide]",5.77,–,–,–,–,–,2.7
